Earlier results on one molecule are cited in publication PMC7523345 (Investigational new drugs, 2018).

For the data set the following is noted: in vivo; cited from earlier work.

Take `Cc1cccc2c1NC(=O)[C@@H](NC(=O)[C@H](CCC(F)(F)F)[C@H](CCC(F)(F)F)C(N)=O)N=C2c1cccc(F)c1` [BMS-986115]: the “Main pharmacological toxicities in animal studies” value was “dose-dependent gastrointestinal (GI) toxicity, lymphoid depletion, and interruption of ovarian follicle maturation”.
